Key:
[1] = test system: immobilized soluble extracellular domain of eck; assay: Stability of eck binding activity of formulated EBP (BIAcore); format: physicochemical, human; settings: diluted into PBS to 100 μg/ml, 2 hours at 3° C., no detergent
Procedure: FIG. 7. Binding of CHO-derived EBP in various detergent formulations to immobilized eck receptor as measured by BIAcore. Purified EBP was diluted to 100 μg/ml in PBS in the presence or absence of detergent and incubated for 2 hrs. at 3° C. Protein samples were diluted to the concentrations indicated in the figure and tested for eck receptor binding.
Measuring the ability of EBP to bind to the immobilized soluble extracellular domain of eck using BIAcore, it was determined that dilute solutions of purified EBP rapidly lost the ability to bind to the eck receptor unless formulated with a protective agent such as a detergent. Recombinant CHO EBP diluted into PBS to 100 μg/ml and incubated for 2 hours at […] lost approximately 50% of its eck binding activity. […] (see FIG. 7).

[2] = test system: eck receptor on CHO 19.32 cells; assay: Chemical crosslinking of 125I-EBP to CHO 19.32 cells; format: binding, human
Procedure: CHO-cell derived EBP was radiolabelled with ^125 I as described below for use in crosslinking and binding studies. Five or 10 μg of EBP in 0.1M sodium phosphate (NAPO4, pH 8.0) was added to 5 mCi of dried ^125 I-Bolton-Hunter reagent (NEN, Boston, Mass.) in a final volume of 50 μl or 100 μl, and the tube was incubated at 4° C. for 1 h. The reaction was terminated by addition of 0.3 ml of 0.2M glycine in 0.1M NaPO4, followed by incubation at 4° C. for 5 min. Labeled protein was separated from unincorporated reagent by gel filtration chromatography on a 10 ml PD10 column containing Sephadex G-25M (Pharmacia) equilibrated with 0.1M NaPO4 --0.25% gelatin. Specific activity of the ^125 I-EBP ranged from 4 to 19 cpm/pg.
Crosslinking of EBP to either LIM 2405 (a cell line naturally expressing the eck receptor) or CHO 19.32 (Chinese hamster ovary cells transfected with a clone of the full length eck receptor) was carried out as follows. CHO cells were grown in suspension to a density of approximately 5×10^5 cells/ml in media. LIM2405 cells were grown in RPMI 1640 media containing 5% FCS, 1 μg/ml insulin, 1 μg/ml hydrocortisone, 10 μM thioglycerol and 2 mM L-glutamine to approximately 90% confluency in T-175 flasks and removed by scraping for use in the crosslinking studies. Cells were spun down and resuspended in PBS to give a single cell suspension. For each crosslinking reaction, 2×10^6 cells were mixed with approximately 20 ng of ^125 I-EBP in a total volume of 1 ml. This mixture was incubated at 4° C. for 1 h to allow binding of EBP to cell surface receptors before the addition of 20 μl of 10 mM disuccinimidyl suberate (DSS) as a crosslinking agent. Cells were then washed three times in binding buffer, collected by centrifugation, and the amount of radioactivity incorporated into the cell pellets was counted to assess the degree of crosslinking. The cells were then lysed by treatment with 100 ul PBS, 1 mM EDTA, 0.5% NP-40, 1 mM phenylmethylsulfonyl fluoride (PMSF, Sigma, St. Louis, Mo.) for 10 min at 4° C. […]

**Q.** “CHO-EBP: recombinant EBP purified from supernatants of CHO cells transfected with the EBP gene; mainly EBP^1-150 and EBP^1-159” was tested. Which “loss of eck binding activity” value [1] did it give?
**A.** approximately 50%

**Q.** What about the “competition for binding and crosslinking of 125I-rEBP” value ([2]; 50-fold molar excess) of the same substance?
**A.** able to compete

**Q.** What about the “crosslinking to CHO 19.32 cells” value ([2]; CHO cells transfected with eck, DSS crosslinker) of the same substance?
**A.** could be crosslinked
